Data published in patent US8158631B2, “Heterocyclic antiviral compounds” (Roche Palo Alto LLC, priority 2009, dated 2012).

Key:
[1] = biological target: T1, HCV polymerase (NS5B570n-Con1) (Hepatitis C virus genotype 1b, UniProt Q9WMX2); assay: HCV NS5B RNA polymerase activity (HCV Polymerase Assay); format: biochemical, HCV Con1 strain
T1 construct: contains a 21 amino acid deletion at the C-terminus relative to the full-length HCV polymerase; made in house; host or cells: E. coli strain BL21(DE) pLysS, plasmid pET17b
Method: The enzymatic activity of HCV polymerase (NS5B570n-Con1) was measured as the incorporation of radiolabeled nucleotide monophosphates into acid insoluble RNA products. Unincorporated radiolabeled substrate was removed by filtration and scintillant was added to the washed and dried filter plate containing radiolabeled RNA product. The amount of RNA product generated by NS5B570-Con1 at the end of the reaction was directly proportional to the amount of light emitted by the scintillant.
The N-terminal 6-histidine tagged HCV polymerase, derived from HCV Con1 strain, genotype 1b (NS5B570n-Con1) contains a 21 amino acid deletion at the C-terminus relative to the full-length HCV polymerase and was purified from E. coli strain BL21(DE) pLysS. The construct, containing the coding sequence of HCV NS5B Con1 (GenBank accession number AJ242654) was inserted into the plasmid construct pET17b, downstream of a T7 promoter expression cassette and transformed into E. coli. A single colony was grown overnight as a starter culture and later used inoculate 10 L of LB media supplemented with 100 μg/mL ampicillin at 37° C. Protein expression was induced by the addition of 0.25 mM isopropyl-β-D-thiogalactopyranoside (IPTG) when optical density at […] of the culture was between 0.6 and 0.8 and cells were harvested after 16 to 18 h at 30° C. NS5B570n-Con1 was purified to homogeneity using a three-step protocol including subsequent column chromatography on Ni-NTA, SP-Sepharose HP and Superdex 75 resins.
Each 50 μL enzymatic reaction contained 20 nM RNA template derived from the complementary sequence of the Internal Ribosome Entry Site (cIRES), 20 nM NS5B570n-Con1 enzyme, 0.5 μCi of tritiated UTP (Perkin Elmer catalog no. TRK-412; specific activity: 30 to 60 Ci/mmol; stock solution concentration from 7.5×10^−5 M to 20.6×10^−6 M), 1 μM each ATP, CTP, and GTP, 40 mM Tris-HCl pH 8.0, 40 mM NaCl, 4 mM DTT (dithiothreitol), 4 mM MgCl2, and 5 μL of compound serial diluted in DMSO. Reaction mixtures were assembled in 96-well filter plates (cat #MADVNOB, Millipore Co.) and incubated for 2 h at 30° C. Reactions were stopped by addition of 10% final (v/v) trichloroacetic acid and incubated for 40 min at 4° C. Reactions were filtered, washed with 8 reaction volumes of 10% (v/v) trichloroacetic acetic acid, 4 reaction volumes of 70% (v/v) ethanol, air dried, and 25 μL of scintillant (Microscint 20, Perkin-Elmer) was added to each reaction well.
The amount of light emitted from the scintillant was converted to counts per minute (CPM) on a Topcount® plate reader (Perkin-Elmer, Energy Range: Low, Efficiency Mode Normal, Count Time: 1 min, Background Subtract: none, Cross talk reduction: Off).
Data was analyzed in Excel® (Microsoft®) and ActivityBase® (Idbs®). The reaction in the absence of enzyme was used to determine the background signal, which was subtracted from the enzymatic reactions. Positive control reactions were performed in the absence of compound, from which the background corrected activity was set as 100% polymerase activity. All data was expressed as a percentage of the positive control.
The compound concentration at which the enzyme-catalyzed rate of RNA synthesis was reduced by 50% (IC50) was calculated by fitting equation (i) to the data where“Y”
[formula] corresponds to the relative enzyme activity (in %), “% Min” is the residual relative activity at saturating compound concentration, “% Max” is the relative maximum enzymatic activity, “X” corresponds to the compound concentration, and “S” is the Hill coefficient (or slope).

[2] = tested on: HCV replicon cells (2209-23), genotype 1b replicon in Huh7 cells; assay: HCV replicon assay (Renilla luciferase reporter); format: cell-based, HCV genotype 1b; human hepatoma Huh7 cells; details: Hepatitis C virus, Huh-7, 72 h, 2209-23 cells, three days incubation
[3] = in vitro; details: human
[4] = tested on: HCV; details: cited from earlier work

| Structure (SMILES) | IC50 [1] [nM] | melting point [°C] | also measured |
| --- | --- | --- | --- |
| COc1c(-c2nc3cc(NS(C)(=O)=O)ccc3o2)cc(N2CCCNC2=O)cc1C(C)(C)C [Compound I-24, N-{2-[3-tert-Butyl-2-methoxy-5-(2-oxo-tetrahydro-pyrimidin-1-yl)-phenyl]-benzooxazol-5-yl}-methanesulfonamide] | 63.3 | – | – |
| COc1c(/C=C/c2ccc(NS(C)(=O)=O)cc2)cc(N2CCCNC2=O)cc1C(C)(C)C [Compound I-2, N-(4-{(E)-2-[3-tert-Butyl-2-methoxy-5-(2-oxo-tetrahydro-pyrimidin-1-yl)-phenyl]-vinyl}-phenyl)-methanesulfonamide] | 10 | – | – |
| COc1c(/C=C/c2ccc(NS(C)(=O)=O)cc2)cc(-n2ncccc2=O)cc1C(C)(C)C [Compound I-11] | 0.38 | 260 to 262 | – |
| COc1c(CCc2ccc(NS(C)(=O)=O)cc2)cc(N2CCCNC2=O)cc1C(C)(C)C [Compound I-3, N-(4-{2-[3-tert-Butyl-2-methoxy-5-(2-oxo-tetrahydro-pyrimidin-1-yl)-phenyl]-ethyl}-phenyl)-methanesulfonamide] | 13 | 244 to 246 | – |
| COc1c(/C=C/c2ccc(NS(C)(=O)=O)cc2)cc(N2CCCCC2=O)cc1C(C)(C)C [Compound I-8, N-(4-{(E)-2-[3-tert-Butyl-2-methoxy-5-(2-oxo-piperidin-1-yl)-phenyl]-vinyl}-phenyl)-methanesulfonamide] | 16 | 247 to 249 | – |
| COC(=O)c1cc(NS(C)(=O)=O)ccc1/C=C/c1cc(-n2ccncc2=O)cc(C(C)(C)C)c1OC [Compound I-15, 2-{(E)-2-[3-tert-Butyl-2-methoxy-5-(2-oxo-2H-pyrazin-1-yl)-phenyl]-vinyl}-5-methanesulfonylamino-benzoic acid methyl ester] | 1 | – | – |
| COc1c(/C=C/c2ccc(NS(C)(=O)=O)cc2)cc(-n2ccc(=O)[nH]c2=O)c2c1C(C)(C)CO2 [Compound I-23, N-(4-{(E)-2-[7-(2,4-Dioxo-3,4-dihydro-2H-pyrimidin-1-yl)-4-methoxy-3,3-dimethyl-2,3-dihydro-benzofuran-5-yl]-vinyl}-phenyl)-methanesulfonamide] | 0.37 | 285 to 288 | – |
| COc1c(/C=C/c2ccccc2C(=O)O)cc(-n2ccncc2=O)cc1C(C)(C)C [Compound I-19, 2-{(E)-2-[3-tert-Butyl-2-methoxy-5-(2-oxo-2H-pyrazin-1-yl)-phenyl]-vinyl}-benzoic acid] | 2 | – | – |
| COc1c(/C=C/c2ccc(NS(C)(=O)=O)cc2)cc(N2CCCNS2(=O)=O)cc1C(C)(C)C [Compound I-26, N-(4-{(E)-2-[3-tert-Butyl-5-(1,1-dioxo-1λ^6-[1,2,6]thiadiazinan-2-yl)-2-methoxy-phenyl]-vinyl}-phenyl)-methanesulfonamide] | 5.1 | 255 to 257 | – |
| COc1c(/C=C/c2ccc(NS(C)(=O)=O)cc2)cc(-n2cnccc2=O)cc1C(C)(C)C [Compound I-12] | 1 | 202 to 204 | – |
| COc1c(CCc2ccc(NS(C)(=O)=O)cc2)cc(N2CCNC2=O)cc1C(C)(C)C [Compound I-4] | 32 | 229 to 231 | – |
| COc1c(/C=C/c2ccccc2C(=O)O)cc(-n2ccccc2=O)cc1C(C)(C)C [Compound I-18] | 5 | – | – |
| CC(C)(C)c1cc(/C=C/c2ccc(NS(C)(=O)=O)cc2)cc(N2CCCNC2=O)c1 [I-I, N-(4-{(E)-2-[3-tert-Butyl-5-(2-oxo-tetrahydro-pyrimidin-1-yl)-phenyl]-vinyl}-phenyl)-methanesulfonamide] | 15 | 235 to 237 | – |
| COc1c(/C=C/c2ccc(NS(C)(=O)=O)cc2)cc(-n2c(C)n[nH]c2=O)cc1C(C)(C)C [Compound I-27, N-(4-{(E)-2-[3-tert-Butyl-2-methoxy-5-(3-methyl-5-oxo-1,5-dihydro-[1,2,4]triazol-4-yl)-phenyl]-vinyl}-phenyl)-methanesulfonamide] | 0.3 | 289 to 291 | – |
| COc1c(CCc2ccc(NS(C)(=O)=O)cc2)cc(N2C(=O)NC(C)C2=O)cc1C(C)(C)C (centres unmarked) [Compound I-25] | 19 | 211 to 212 | – |
| COc1c(/C=C/c2ccc(NS(C)(=O)=O)cc2C(=O)O)cc(-n2ccncc2=O)cc1C(C)(C)C [Compound I-16] | 0.39 | 176 to 179 | – |
| COc1c(/C=C/c2ccc(NS(C)(=O)=O)cc2)cc(N2CCC(C)(C)NC2=O)cc1C(C)(C)C [Compound I-5, N-(4-{(E)-2-[3-tert-Butyl-5-(4,4-dimethyl-2-oxo-tetrahydro-pyrimidin-1-yl)-2-methoxy-phenyl]-vinyl}-phenyl)-methanesulfonamide] | 1 | – | IC50 [2]: 19 nM; CC50 [3]: 13800 nM |
| NC(=O)c1ncn([C@@H]2O[C@H](CO)[C@@H](O)[C@H]2O)n1 [ribavirin, 1-((2R,3R,4S,5R)-3,4-Dihydroxy-5-hydroxymethyl-tetrahydro-furan-2-yl)-1H-[1,2,4]triazole-3-carboxylic acid amide] | – | – | patients with serum amino transferase levels reduced to normal ([4]; monotherapy): 40 % of patients; effect on serum levels of HCV-RNA ([4]; sole treatment / monotherapy): does not lower serum levels of HCV-RNA |
| COc1c(/C=C/c2ccc(NS(C)(=O)=O)cc2)cc(-n2cc(F)ccc2=O)cc1C(C)(C)C [Compound I-10] | 5 | 248 to 250 | – |
| COc1c(CCc2ccc(NS(C)(=O)=O)cc2)cc(N2C(=O)CCNC2=O)cc1C(C)(C)C [Compound I-6, N-(4-{2-[3-tert-Butyl-5-(2,6-dioxo-tetrahydro-pyrimidin-1-yl)-2-methoxy-phenyl]-ethyl}-phenyl)-methanesulfonamide] | 63 | – | – |
| COc1c(-c2cc3ccc(NS(C)(=O)=O)cc3c(=O)o2)cc(-n2ccncc2=O)cc1C(C)(C)C [Compound I-22] | 3 | 272 to 275 | – |
| COc1c(CCc2ccc(NS(C)(=O)=O)cc2)cc(N2C(=O)CNC2=O)cc1C(C)(C)C [Compound I-7, N-(4-{2-[3-tert-Butyl-5-(2,5-dioxo-imidazolidin-1-yl)-2-methoxy-phenyl]-ethyl}-phenyl)-methanesulfonamide] | 15 | 230 to 231 | – |
| COc1c(CCc2ccc(NS(C)(=O)=O)cc2)cc(N2CCCS2(=O)=O)cc1C(C)(C)C [Compound I-20] | 83 | 83 to 86 | – |
| COc1c(/C=C/c2ccc(NS(C)(=O)=O)cc2CO)cc(-n2ccncc2=O)cc1C(C)(C)C [Compound I-17, N-(4-{(E)-2-[3-tert-Butyl-2-methoxy-5-(2-oxo-2H-pyrazin-1-yl)-phenyl]-vinyl}-3-hydroxymethyl-phenyl)-methanesulfonamide] | 0.49 | 238 to 240 | – |
| COc1c(/C=C/c2ccc(NS(C)(=O)=O)cc2)cc(-n2ccccc2=O)cc1C(C)(C)C [Compound I-9, N-(4-{(E)-2-[3-tert-Butyl-2-methoxy-5-(2-oxo-2H-pyridin-1-yl)-phenyl]-vinyl}-phenyl)-methanesulfonamide] | 1 | 254 to 256 | – |
| COc1c(/C=C/c2ccc(NS(C)(=O)=O)cc2C(=O)O)cc(N2CCCNC2=O)cc1C(C)(C)C [Compound I-21] | 0.23 | 275 to 278 | – |
